pKi: −log10 of the molar value.
Legend:
human CB1 receptors = human CB1 receptors (Homo sapiens (Human), UniProt P21554); assay: Cannabinoid receptor binding (displacement) assay, CB1; conditions: 10 μM compound
Method: (§1) The affinities of the compounds for CB1 and CB2 receptors were examined using displacement assays, as previously described. Briefly, cell membranes from CHO cells expressing human CB1 or human CB2 receptors were isolated using differential centrifugation. Test compounds reconstituted in DMSO and were incubated with the isolated membrane in binding buffer (50 mM Tris-HCl, 1 mM EDTA, 3 mM MgCl2, 5 mg/mL BSA, pH 7.4) along with 2.5 nM [^3H]CP-55,940. Total binding was assessed in the presence of equal concentration of DMSO, while non-specific binding was determined in the presence of 10 μM CP-55,940, and background binding was determined in wells lacking membrane. Following incubation at 30° C. for 60 min, the binding reactions were terminated by vacuum filtration through Whatman GF/C filters. The filters were then washed twice with ice-cold buffer (50 mM Tris-HCl, 1 mg/mL BSA). Liquid scintillation cocktail was added to each well and the total tritiated counts per minute were analyzed using a TopCount scintillation counter. Background counts were subtracted from all wells and the percent displacement from total binding was calculated.
(§2) The compounds were initially screened at 10 μM concentrations. If they produced at least ±30% displacement of the radioligand, then full competition curves were constructed. Ki values were calculated using GraphPad Prism (San Diego, CA, USA) and Kd values determined using a 1 site fit. All assays were run in technical and biological replicates so that the n=5-6. PK Evaluation in CD-1 Mice
(§3) The CB1/CB2 receptor binding activities of analogs 4a-4q were assessed via radioactivity-based competitive binding assays using [^3H]CP55,940, an extensively studied radioligand that is frequently used for cannabinoid assays. […] In preliminary screening, all 17 synthetic PBD compounds (4a-4q) were subjected to in vitro CB1 and CB2 binding assays at a single concentration of 10 μM. […] Therefore, the most promising ligands (4k and 4q) were selected for assessment in full competition curves against CB1 and CB2.

human CB2 receptors = human CB2 receptors (Homo sapiens (Human), UniProt P34972); assay: Cannabinoid receptor binding (displacement) assay, CB2; conditions: for Displacement of [3H]CP-55,940 from CB2: 10 μM compound
human CB2 receptors, sequence (P34972 whole entry): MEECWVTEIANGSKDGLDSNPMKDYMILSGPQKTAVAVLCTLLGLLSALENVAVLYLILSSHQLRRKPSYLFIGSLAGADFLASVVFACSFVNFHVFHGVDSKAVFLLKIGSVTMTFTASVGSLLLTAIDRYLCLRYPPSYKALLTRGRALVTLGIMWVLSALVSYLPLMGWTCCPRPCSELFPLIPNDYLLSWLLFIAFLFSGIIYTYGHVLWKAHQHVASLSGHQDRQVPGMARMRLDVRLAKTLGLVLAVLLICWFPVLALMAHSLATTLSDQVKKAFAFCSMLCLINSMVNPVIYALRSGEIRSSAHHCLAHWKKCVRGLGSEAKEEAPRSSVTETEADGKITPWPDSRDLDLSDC
Method: as §1, §2, §3

mice [1] = assay: Conditioned place preference test; assay type: in vivo; conditions: FIG. 4
From the text: Conditioned place preference testing is used to assess a compound's rewarding effects in order to gauge potential abuse liability. Mice are “conditioned” to associate distinctly lighted/colored/textured chambers with a rewarding drug (e.g., opioid) or no drug. If the mice sense a rewarding effect of the drug, they will prefer to occupy the chamber associated with that drug. FIG. 4 presents the results of a conditioned place preference test for 3 groups of mice (i.e., vehicle, oxycodone treated, and compound 4k treated).

mice [2] = assay: Acetic acid-induced writhing test; assay type: in vivo; conditions: oxycodone 3 mg/kg, compound 4k 5 mg/kg, versus vehicle
From the text: Acetic acid-induced writhing is widely used for assessing analgesic effects against inflammatory pain of peripheral origin.

human CB1 receptors, sequence (P21554 whole entry): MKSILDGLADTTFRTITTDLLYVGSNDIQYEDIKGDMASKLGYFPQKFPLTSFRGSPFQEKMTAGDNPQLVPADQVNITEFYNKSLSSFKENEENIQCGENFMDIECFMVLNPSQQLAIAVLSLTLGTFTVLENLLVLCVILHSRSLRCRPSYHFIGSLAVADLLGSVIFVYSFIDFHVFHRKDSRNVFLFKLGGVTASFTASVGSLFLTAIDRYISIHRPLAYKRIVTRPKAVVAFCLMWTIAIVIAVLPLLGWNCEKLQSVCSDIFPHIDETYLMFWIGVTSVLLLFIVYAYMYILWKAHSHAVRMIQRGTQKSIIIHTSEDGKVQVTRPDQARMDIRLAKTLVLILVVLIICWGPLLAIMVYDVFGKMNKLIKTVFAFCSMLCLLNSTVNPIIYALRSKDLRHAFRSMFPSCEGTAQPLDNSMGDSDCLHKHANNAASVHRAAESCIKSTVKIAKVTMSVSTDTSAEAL

| Compound | Displacement of [3H]CP-55,940 from CB1 (human CB1 receptors) [%] | Displacement of [3H]CP-55,940 from CB2 (human CB2 receptors) [%] | pKi (human CB2 receptors; CB2, full competition curves) | place preference (rewarding effect, abuse liability) (mice [1]) | writhing over 30 minutes (mice [2]) |
| --- | --- | --- | --- | --- | --- |
| Nc1ncc(/C=N/N=C2/Nc3ccccc3C(=O)N3CCC[C@@H]23)s1 [Compound 4f] | 1.75 | 3.72 | – | – | – |
| Cc1ncsc1/C=N/N=C1/Nc2ccccc2C(=O)N2CCC[C@@H]12 [Compound 4e] | 21.88 | 19.86 | – | – | – |
| O=C1c2ccccc2N/C(=N/N=C/C23CC4CC(CC(C4)C2)C3)[C@@H]2CCCN12 [Compound 4q] | – | – | 6.86 | – | – |
| (S,E)-11-[(Thiazol-5-ylmethylene)hydrazono]-pyrrolo[2,1-c][1,4] Benzodiazepine [Compound 4c] | 0.25 | 3.06 | – | – | – |
| O=C1c2ccccc2N/C(=N/N=C/c2sc3ccccc3c2Cl)[C@@H]2CCCN12 [Compound 4m] | 5.22 | 50.05 | – | – | – |
| (S,E)-11-[(Benzo[d]thiazol-2-ylmethylene)hydrazono]-pyrrolo[2,1-c][1,4] Benzodiazepine [Compound 4n] | 44.14 | 43.34 | – | – | – |
| (S,E)-11-[(5-Methoxy-1H-indol-3-yl)methylene)hydrazono]-pyrrolo[2,1-c][1,4]Benzodiazepine [Compound 4p] | −27.20 | −29.47 | – | – | – |
| Cc1ncc(/C=N/N=C2/Nc3ccccc3C(=O)N3CCC[C@@H]23)s1 [Compound 4d] | −27.99 | −33.65 | – | – | – |
| COc1ccc2c3c1O[C@H]1C(=O)CC[C@@]4(O)[C@@H](C2)N(C)CC[C@]314 [oxycodone, reference compound] | – | – | – | clear place preference | attenuate writhing |
